The values that follow come from US11279702B2, “AMPK activators” (Kallyope, Inc., priority 2020, dated 2022).

Structures are written as SMILES. pEC50: −log10 of the molar value. Where only a bound is given, the exact number is not on record here.

A short description of data set [1]: Pharmacokinetics (oral bioavailability, IV parameters). As to conditions: mouse, in vivo; C57BL/6 mice, IV 1 mg/kg, PO 30 mg/kg. The procedure: Compounds were tested for pharmacokinetics in C57BL/6 mice. Compounds 2, 4, and A1 were dosed IV at 1 mg/kg as a formulation of 0.5 mg/mL in 5% DMSO+30% PEG400+65% water and PO at 30 mg/kg as a formulation of 6 mg/mL in 0.25% MC+5% Tween 80+0.02% SDS. Compound 1 was dosed IV at 1 mg/kg as a formulation of 0.50 mg/mL in 5% DMSO+30% PEG400+65% water and PO at 30 mg/kg as a formulation of 6 mg/mL in 0.5% MC+0.5% Tween 80.

For data set [2], the target named is Recombinant AMPK α1/β1/γ1 complex (Homo sapiens (Human), UniProt Q13131+Q9Y478). The experiment in a line: In vitro pAMPK1 kinase activation assay (ADP-Glo, SAMS peptide). The data set is classed as biochemical. Conditions: for pEC50: AMPK α1/β1/γ1 pre-activated with CAMKK2, 12-point curve; for activation at 10 µM: relative to reference compound MK-8722. The procedure:
Compound effect on AMPK enzyme activation was determined in a cell-free format with a 12-point concentration curve. The ADP-Glo detection system was used to determine phosphorylation of a SAMS peptide substrate. Recombinant AMPK α1/β1/γ1 complex was pre-activated by phosphorylation with CAMKK2 followed by incubated with compound for 15 minutes prior to the SAMS phosphorylation reaction. Activity curves and EC50 values were fitted by interpolation to an ATP:ADP standard curve as indicated by the ADP-Glo manufacturer using Prism software. Activity at 10 μM is reported relative to a reference compound, MK-8722 (Science 2017, 357(6350):507-511).

The subject of data set [3] is Mouse In Vivo Chemotherapy-Induced Intestinal Injury Model. The experiment in a line: Diarrhea in chemotherapy (5FU)-induced intestinal injury model. More on the design: species or system BALB/c mice. Conditions: 30 mg/kg BID. The procedure:
Compounds were formulated in vehicle (0.25% methyl cellulose, 5% Tween 80, 0.02% sodium dodecyl sulfate (SDS) in Hanks' Buffered Salt Solution with Ca2+ and Mg2+). On day 1, either saline or a 400 mg/kg dose of 5-fluorouracil (5FU) in saline was administered by intraperitoneal injection to BALB/c mice. Starting on day 2, vehicle or compound was administered once or twice a day by oral gavage. In some instances, compound was also administered once or twice a day by oral gavage from day −3 to day −1 (pre-5FU). From days 5 to 6 post-5FU, the animals were scored for diarrhea severity once a day. The diarrhea was scored 0-3 as follows: 0—normal consistency (black and solid), 1—soft (black and a bit lighter/yellow), 2—loosely shaped stool (yellowish and somewhat watery), 3—extreme diarrhea (very watery). Day 5 and day 6 diarrhea scores following administration of certain compounds were lower than vehicle control mice. […] In addition, Compound 1 was efficacious at doses as low as 3 mg/kg BID (6 mg/kg total daily dose).

The target of data set [4] is BCRP (Homo sapiens (Human), UniProt Q9UNQ0). The experiment in a line: in vitro. It counts as in vitro ADME. As to the method:
Caco-2 cells purchased from ATCC were seeded onto […] (PET) in 96-well BD Insert plates at 1×10^5 cells/cm^2, and refreshed medium every 4-5 days until to the 21st to 28th day for confluent cell monolayer formation. The transport buffer in the study was HBSS with 10 mM HEPES at pH 7.40±0.05. Compounds were tested at 2 μM in the presence or absence of 30 μM novobiocin bi-directionally in duplicate. E3S was tested at 5 μM in the presence or absence of 30 μM novobiocin bi-directionally in duplicate, while nadolol and metoprolol were tested at 2 μM in the absence of novobiocin in A to B direction in duplicate. Final DMSO concentration was adjusted to less than 1%. The plate was incubated for 2 hours in CO2 incubator at 37+1° C., with 5% CO2 at saturated humidity without shaking. All samples were mixed with acetonitrile containing internal standard and were centrifuged at 4000 rpm for 10 min. Subsequently, 100 μL supernatant solution was diluted with 100 μL distilled water for LC/MS/MS analysis. Concentrations of test and control compounds in starting solution, donor solution, and receiver solution were quantified by LC/MS/MS, using peak area ratio of analyte/internal standard.

Data set [5] has as its system Acetyl CoA Carboxylase (ACC) Phosphorylation in Mouse Muscle. Briefly: Level of ACC phosphorylation in mouse muscle. The data set is classed as in vivo, C57BL/6J mice. The procedure:
Systemic AMPK target engagement in vivo can be assessed by measuring the site-specific phosphorylation of a direct AMPK substrate, acetyl-coenzyme A carboxylase (ACC), in a well perfused tissue such as muscle.
Compounds were formulated in vehicle (0.25% methyl cellulose, 5% Tween 80, 0.02% sodium dodecyl sulfate (SDS) in Hanks' Buffered Salt Solution with Ca^2+ and Mg^2+). Male C57BL/6J mice were administered vehicle or compound once daily for 5 days. On the final day of dosing (day 1 for acute assessment, day 5 for sub-chronic assessment), mice were euthanized by cervical dislocation five hours post dose and samples of skeletal muscle (gastrocnemius) were removed and snap frozen in liquid nitrogen.
Frozen muscle tissues were homogenized. Homogenates were analyzed for protein concentration and equal amounts of protein were assayed for total and phosphorylated ACC (p-ACC) levels using Meso Scale Discovery's Multi-array assay kit. The ratio of p-ACC/total ACC was determined for each sample.

Recombinant AMPK α1/β1/γ1 complex, sequence (Q13131 whole entry): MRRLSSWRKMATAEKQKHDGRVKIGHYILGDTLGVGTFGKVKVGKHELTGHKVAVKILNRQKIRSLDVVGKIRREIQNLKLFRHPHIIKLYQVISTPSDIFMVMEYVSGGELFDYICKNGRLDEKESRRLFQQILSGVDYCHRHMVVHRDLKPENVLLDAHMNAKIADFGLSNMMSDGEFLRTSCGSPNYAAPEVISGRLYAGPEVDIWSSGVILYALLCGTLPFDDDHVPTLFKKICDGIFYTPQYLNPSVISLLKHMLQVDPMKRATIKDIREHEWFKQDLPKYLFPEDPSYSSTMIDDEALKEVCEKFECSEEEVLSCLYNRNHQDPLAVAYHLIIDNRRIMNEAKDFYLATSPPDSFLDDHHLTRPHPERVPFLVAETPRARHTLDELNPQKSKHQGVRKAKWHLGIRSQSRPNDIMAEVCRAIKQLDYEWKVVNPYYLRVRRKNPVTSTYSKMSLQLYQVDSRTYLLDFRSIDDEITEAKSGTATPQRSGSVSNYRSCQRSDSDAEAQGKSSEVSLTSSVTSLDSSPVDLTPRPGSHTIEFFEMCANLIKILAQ
Recombinant AMPK α1/β1/γ1 complex, sequence (Q9Y478 whole entry): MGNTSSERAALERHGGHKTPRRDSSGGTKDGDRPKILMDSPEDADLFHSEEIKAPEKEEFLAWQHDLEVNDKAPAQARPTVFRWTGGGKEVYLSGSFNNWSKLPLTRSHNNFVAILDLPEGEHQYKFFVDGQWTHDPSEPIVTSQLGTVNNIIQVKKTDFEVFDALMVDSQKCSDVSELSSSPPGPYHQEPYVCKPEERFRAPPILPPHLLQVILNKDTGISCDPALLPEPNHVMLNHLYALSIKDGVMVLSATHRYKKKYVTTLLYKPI
Recombinant AMPK α1/β1/γ1 complex, sequence (P54619 whole entry partner): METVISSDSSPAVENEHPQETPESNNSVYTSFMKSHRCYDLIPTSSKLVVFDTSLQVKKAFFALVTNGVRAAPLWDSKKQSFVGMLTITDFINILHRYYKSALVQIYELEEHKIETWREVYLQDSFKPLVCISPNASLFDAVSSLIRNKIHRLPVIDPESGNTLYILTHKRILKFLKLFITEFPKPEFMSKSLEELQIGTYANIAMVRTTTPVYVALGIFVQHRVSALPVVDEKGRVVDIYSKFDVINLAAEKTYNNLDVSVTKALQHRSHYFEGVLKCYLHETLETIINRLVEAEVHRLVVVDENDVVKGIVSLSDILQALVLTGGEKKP
BCRP, sequence (Q9UNQ0 whole entry): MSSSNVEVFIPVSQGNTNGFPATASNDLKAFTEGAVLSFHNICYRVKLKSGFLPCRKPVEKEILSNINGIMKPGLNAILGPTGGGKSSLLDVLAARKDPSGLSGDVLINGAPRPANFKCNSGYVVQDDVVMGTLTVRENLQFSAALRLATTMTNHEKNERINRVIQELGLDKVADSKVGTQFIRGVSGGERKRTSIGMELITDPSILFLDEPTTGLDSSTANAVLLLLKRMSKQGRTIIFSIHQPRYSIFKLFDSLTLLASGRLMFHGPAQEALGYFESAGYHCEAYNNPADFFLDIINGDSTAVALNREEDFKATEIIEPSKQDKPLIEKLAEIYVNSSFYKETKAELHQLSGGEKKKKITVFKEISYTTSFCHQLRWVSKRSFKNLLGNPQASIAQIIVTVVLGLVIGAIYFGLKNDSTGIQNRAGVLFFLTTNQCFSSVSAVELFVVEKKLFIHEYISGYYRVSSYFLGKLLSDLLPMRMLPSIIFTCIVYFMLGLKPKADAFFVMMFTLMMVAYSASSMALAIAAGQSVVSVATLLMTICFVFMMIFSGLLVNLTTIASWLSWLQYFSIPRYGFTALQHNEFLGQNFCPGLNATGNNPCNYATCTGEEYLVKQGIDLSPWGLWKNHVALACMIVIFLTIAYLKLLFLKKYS

As to `CP(=O)(O)CSc1nc2nc(-c3ccc(-c4ccccc4O)cc3)c(Cl)cc2[nH]1` [Compound 2, (((6-chloro-5-(2′-hydroxy-[1,1′-biphenyl]-4-yl)-1H-imidazo[4,5-b]pyridin-2-yl)thio)methyl)(methyl)phosphinic Acid], the bioavailability in data set [1] was less than 1%. Besides, in data set [2], the pEC50 was 9.01 and the activation at 10 µM was 47%.
In the case of `CCOP(=O)(O)CSc1nc2nc(-c3ccc(-c4ccccc4O)cc3)c(Cl)cc2[nH]1` [Compound 3, ethyl hydrogen (((6-chloro-5-(2′-hydroxy-[1,1′-biphenyl]-4-yl)-1H-imidazo[4,5-b]pyridin-2-yl)thio)methyl)phosphonate], in data set [2], the pEC50 is 8.62 and the activation at 10 µM turned out to be 49%.
As to `O=P(O)(O)CSc1nc2nc(-c3ccc(-c4ccccc4O)cc3)c(Cl)cc2[nH]1` [Compound 4, (((6-chloro-5-(2′-hydroxy-[1,1′-biphenyl]-4-yl)-1H-imidazo[4,5-b]pyridin-2-yl)thio)methyl)phosphonic Acid], the bioavailability in data set [1] is less than 1%. Further, in data set [2], the pEC50 was 9.26. The activation at 10 µM in data set [2] was found to be 28%. Further, the “Diarrhea Score % Change vs. Vehicle” value in data set [3] (Day 5) was −58%; in data set [3] (Day 6) it was −65%. In addition, the “Diarrhea Score” value in data set [3] (Day 5, score 0-3) is on record as 0.37; in data set [3] (Day 6, score 0-3), 0.63.
`CC(C)(C)CCc1ccc(-c2ccc(-c3nc4nc(SCC(=O)O)[nH]c4cc3Cl)cc2)c(O)c1` [Compound 6, 2-((6-chloro-5-(4′-(3,3-dimethylbutyl)-2′-hydroxy-[1,1′-biphenyl]-4-yl)-1H-imidazo[4,5-b]pyridin-2-yl)thio)acetic Acid]: in data set [2], the pEC50 is 5.95 and the activation at 10 µM was 18%.
For `O=C(O)CSc1nc2nc(-c3ccc(N4CC[C@H](O)C4)cc3)c(Cl)cc2[nH]1` [Compound 7, (S)-2-((6-chloro-5-(4-(3-hydroxypyrrolidin-1-yl)phenyl)-1H-imidazo[4,5-b]pyridin-2-yl)thio)acetic Acid], in data set [2], the negative logarithm of the EC50 (pEC50) is 7.37 and the activation at 10 µM is 42%.
The corresponding values for `O=C(O)CSc1nc2nc(-c3ccc(-c4ccc(-n5cncn5)cc4)cc3)c(Cl)cc2[nH]1` [Compound 8, 2-((5-(4′-(1H-1,2,4-triazol-1-yl)-[1,1′-biphenyl]-4-yl)-6-chloro-1H-imidazo[4,5-b]pyridin-2-yl)thio)acetic Acid] are 7.70 and 39%.
For `O=C(O)CSc1nc2nc(-c3ccc(-c4ccc(-n5cncn5)cc4O)cc3)c(Cl)cc2[nH]1` [Compound 9, 2-((6-chloro-5-(2′-hydroxy-4′-(1H-1,2,4-triazol-1-yl)-[1,1′-biphenyl]-4-yl)-1H-imidazo[4,5-b]pyridin-2-yl)thio)acetic Acid] the same measures were 8.96 and 51%.
For the compound `C[C@]12CC[C@@H]3c4ccc(OS(=O)(=O)O)cc4CC[C@H]3[C@@H]1CCC2=O` [Compound E3S, reference compound], in data set [4] (Caco-2), the “Efflux Ratio” value amounted to 36.79, the “Mean Recovery (%) A to B” value is 76.60% and the “Mean Recovery (%) B to A” value worked out at 98.34%.
On to `O[C@@H]1CO[C@H]2[C@@H]1OC[C@H]2Oc1nc2cc(Cl)c(-c3ccc(-c4ccccc4)cc3)cc2[nH]1` [MK-8722, reference compound], for which the “% p-ACC/ACC ratio change vs. Vehicle, Sub-chronic (5 days)” value in data set [5] (30 mg/kg once daily for 5 days, five hours post dose, gastrocnemius) was 259.0%. In data set [5] (30 mg/kg, day 1, five hours post dose, gastrocnemius), the “% p-ACC/ACC ratio change vs. Vehicle, Acute (5 hr)” value was 275.7%. For the same compound, the “ratio of pACC/total ACC compared with vehicle control mice” value in data set [5] (30 mg/kg, one-way ANOVA vs vehicle (Dunnett's post-test)) is on record as “significantly higher”.
Turning to `COCCc1ccc(OCC(O)CNC(C)C)cc1` (stereo not drawn) [metoprolol, reference compound], the Papp A→B at 2 h, 2 μM in data set [4] (human, Caco-2, pH 7.4, Mean Papp (10^−6 cm/s) A to B) stood at 14.7 ×10⁻⁶ cm/s. The same compound came in with a recovery at 2 h, 2 μM in data set [4] (human, Caco-2, pH 7.4, Mean Recovery (%) A to B) of 95.4%.
As to `CC(C)(C)NCC(O)COc1cccc2c1CC(O)C(O)C2` (stereo not drawn) [nadolol, reference compound], in data set [4] (Caco-2), the “Mean Papp (10^−6 cm/s) A to B” value is given as 0.11 10^−6 cm/s and the “Mean Recovery (%) A to B” value is recorded as 99.73%.
